From the NIST ThermoML archive (doi:10.1016/j.jct.2016.08.026)

Experiment: xn = mol fraction of the nth substance listed
Conditions: 101 kPa, Liquid, Pycnometric method

C=CC(=O)OC(C)(C)C [tert-butyl acrylate] + CC#N
mass density [kg/m3]
Conditions	293.15 K	298.15 K	303.15 K	308.15 K	313.15 K	318.15 K
x2 = 0	884.13	879.66	875.2	870.74	866.28	861.82
x2 = 0.0772	881.52	877.05	872.58	868.11	863.64	859.17
x2 = 0.1496	878.71	874.23	869.74	865.25	860.76	856.27
x2 = 0.2216	875.53	871.02	866.51	861.99	857.47	852.95
x2 = 0.2983	871.66	867.11	862.56	858	853.44	848.88
x2 = 0.3643	867.87	863.28	858.69	854.1	849.51	844.91
x2 = 0.4345	863.31	858.68	854.05	849.42	844.78	840.14
x2 = 0.5074	857.88	853.2	848.52	843.84	839.16	834.47
x2 = 0.5769	851.91	847.18	842.45	837.72	832.98	828.24
x2 = 0.6465	844.97	840.18	835.39	830.6	825.8	821
x2 = 0.7141	837.1	832.24	827.38	822.52	817.66	812.8
x2 = 0.7821	827.76	822.83	817.9	812.96	808.02	803.08
x2 = 0.8603	814.71	809.68	804.64	799.6	794.56	789.51
x2 = 0.9345	799.24	794.08	788.92	783.75	778.58	773.41

C=CC(=O)OCC [ethyl propenoate] + CC#N
mass density [kg/m3]
Conditions	293.15 K	298.15 K	303.15 K	308.15 K	313.15 K	318.15 K
x2 = 0	921.76	915.95	910.14	904.33	898.52	892.71
x2 = 0.0611	918.24	912.49	906.74	900.99	895.24	889.48
x2 = 0.1197	914.45	908.75	903.05	897.35	891.64	885.93
x2 = 0.1852	909.73	904.07	898.4	892.73	887.06	881.39
x2 = 0.2385	905.48	899.84	894.2	888.55	882.9	877.25
x2 = 0.2966	900.45	894.83	889.21	883.58	877.95	872.32
x2 = 0.3675	893.69	888.1	882.5	876.9	871.3	865.7
x2 = 0.436	886.46	880.89	875.32	869.75	864.18	858.61
x2 = 0.4982	879.23	873.69	868.15	862.61	857.07	851.53
x2 = 0.5745	869.38	863.88	858.38	852.88	847.38	841.87
x2 = 0.6519	858.1	852.64	847.18	841.72	836.26	830.8
x2 = 0.725	846	840.58	835.16	829.74	824.32	818.9
x2 = 0.8185	828.05	822.69	817.33	811.97	806.6	801.23
x2 = 0.9145	805.92	800.6	795.28	789.96	784.63	779.3

C=CC(=O)OC [methyl propenoate] + CC#N
mass density [kg/m3]
Conditions	293.15 K	298.15 K	303.15 K	308.15 K	313.15 K	318.15 K
x2 = 0	953.51	947.56	941.61	935.66	929.71	923.76
x2 = 0.0591	948.65	942.78	936.9	931.02	925.14	919.27
x2 = 0.1171	943.34	937.51	931.68	925.85	920.01	914.17
x2 = 0.17	938.02	932.22	926.42	920.62	914.81	909
x2 = 0.2356	930.83	925.06	919.29	913.52	907.75	901.97
x2 = 0.2977	923.4	917.66	911.92	906.18	900.43	894.68
x2 = 0.3615	915.12	909.41	903.7	897.99	892.28	886.56
x2 = 0.4343	904.86	899.19	893.52	887.85	882.17	876.49
x2 = 0.5014	894.57	888.94	883.31	877.67	872.03	866.39
x2 = 0.5738	882.48	876.9	871.32	865.73	860.14	854.55
x2 = 0.6537	867.83	862.31	856.79	851.26	845.73	840.2
x2 = 0.7623	845.33	839.89	834.45	829.01	823.57	818.13
x2 = 0.8155	833.04	827.65	822.26	816.87	811.47	806.07
x2 = 0.9074	809.47	804.14	798.81	793.47	788.13	782.79

C=CC(=O)OCCCC [butyl 2-propenoate] + CC#N
mass density [kg/m3]
Conditions	293.15 K	298.15 K	303.15 K	308.15 K	313.15 K	318.15 K
x2 = 0	898.85	894.1	889.35	884.6	879.85	875.1
x2 = 0.061	896.58	891.84	887.1	882.36	877.62	872.87
x2 = 0.1168	894.23	889.49	884.75	880.01	875.26	870.51
x2 = 0.1832	891.06	886.31	881.56	876.81	872.05	867.29
x2 = 0.2571	887.05	882.28	877.51	872.73	867.95	863.17
x2 = 0.3094	883.86	879.07	874.28	869.49	864.69	859.89
x2 = 0.3825	878.86	874.05	869.23	864.41	859.59	854.77
x2 = 0.4563	873.07	868.23	863.39	858.55	853.7	848.85
x2 = 0.5282	866.62	861.75	856.88	852.01	847.13	842.25
x2 = 0.5779	861.58	856.69	851.79	846.89	841.99	837.09
x2 = 0.6483	853.47	848.54	843.6	838.66	833.72	828.79
x2 = 0.7299	842.32	837.34	832.35	827.36	822.37	817.38
x2 = 0.8143	828.2	823.15	818.1	813.05	807.99	802.93
x2 = 0.9182	805.7	800.53	795.36	790.19	785.01	779.83
